Assay results taken from patent US9663512B2, “Bicyclic heterocycle compounds and their uses in therapy” (ASTEX THERAPEUTICS LIMITED, priority 2012, dated 2017).
Counter-ions that a name gives are not always drawn. Like-named read-outs stand apart in the source and are kept apart here.

Experiments:
[1] = test system: EVSA-T (human breast carcinoma); assay: Anti-proliferative activity, Alamar Blue assay, EVSA-T; format: cell-based; conditions: EVSA-T cell line, read-out: EVSA-T prolif (EC50)
[2] = biological target: T1, BIR3 domain of human XIAP (Homo sapiens, UniProt P98170); assay: XIAP in vitro competitive displacement binding assay (fluorescence polarization); conditions: for IC50: XIAP BIR3 fluorescence polarization displacement, average (e.g. geometric mean), read-out: Xiap IC50 or PI (IC50); for inhibition at […]: at 0.12 μM; for inhibition at […] / inhibition at 0.04 µM: read-out: Xiap IC50 or PI (percent inhibition)
T1 construct: BIR3 domain of human XIAP (residues 252-350) fused to a His-tag; His-tag (cleaved yes); made in house; host or cells: Escherichia coli

[3] = biological target: T2, BIR3 domain of human cIAP-1 (Homo sapiens, UniProt Q13490); assay: cIAP-1 in vitro competitive displacement binding assay (fluorescence polarization); conditions: at 0.012 μM; read-out: cIAP1 IC50 or PI (percent inhibition)
T2 construct: human cIAP-1 (residues 267-363) fused to a GST-tag; GST-tag (cleaved yes); made in house; host or cells: Escherichia coli
T2 sequence (Q13490 267-363): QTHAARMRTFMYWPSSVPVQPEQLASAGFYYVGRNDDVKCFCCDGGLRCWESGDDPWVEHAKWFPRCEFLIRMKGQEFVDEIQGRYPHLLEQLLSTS

T1 sequence (P98170 252-350): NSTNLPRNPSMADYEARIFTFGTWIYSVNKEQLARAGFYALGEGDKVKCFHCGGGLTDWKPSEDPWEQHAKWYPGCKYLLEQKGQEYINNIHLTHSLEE

Row | Compound | EC50 ([1]; 72 hours) | inhibition at […] [3] | inhibition at 0.04 µM [2] | further results
1 | Cc1cn(C[C@H]2CN[C@H](C)CN2CC(=O)N2CC(C)(C)c3ncc(Cc4ccc(F)cc4)cc32)cn1 (single isomer, unassigned) [Example 13, dihydrochloride] | 9.9 nM | – | – | –
2 | Cc1cncn1C[C@H]1CN[C@H](C)CN1CC(=O)N1CC(C)(C)c2ncc(Cc3ccc(F)cc3)cc21 (single isomer, unassigned) [Example 14, dihydrochloride] | 5.9 nM | – | – | –
3 | Cc1cnn(C[C@H]2CN[C@H](C)CN2CC(=O)N2CC(C)(C)c3ncc(Cc4ccc(F)cc4)cc32)c1C (single isomer, unassigned) [Example 20, dihydrochloride] | < 1000 nM | – | – | EC50 ([1]; EVSA-T, 72 h): 2.1 nM
4 | Cc1cc(C)n(C[C@H]2CN[C@H](C)CN2CC(=O)N2CC(C)(C)c3ncc(Cc4ccc(F)cc4)cc32)n1 [Example 1, 2-[(2R,5R)-2-[(3,5-Dimethyl-1H-pyrazol-1-yl)methyl]-5-methylpiperazin-1-yl]-1-{6-[(4-fluorophenyl)methyl]-3,3-dimethyl-1H,2H,3H-pyrrolo[3,2-b]pyridin-1-yl}ethan-1-one, dihydrochloride] | – | – | – | IC50 [2]: 91 nM
5 | Cc1nccn1C[C@H]1CN[C@H](C)CN1CC(=O)N1CC(C)(C)c2ncc(Cc3ccc(F)cc3)cc21 [Example 2, 1-{6-[(4-Fluorophenyl)methyl]-3,3-dimethyl-1H,2H,3H-pyrrolo[3,2-b]pyridin-1-yl}-2-[(2R,5R)-5-methyl-2-[(2-methyl-1H-imidazol-1-yl)methyl]piperazin-1-yl]ethan-1-one, dihydrochloride] | – | 100% | – | inhibition at […] [2]: 65%
6 | Cc1ncn(C[C@H]2CN[C@H](C)CN2CC(=O)N2CC(C)(C)c3ncc(Cc4ccc(F)cc4)cc32)c1C [Example 3, 2-[(2R,5R)-2-[(4,5-Dimethyl-1H-imidazol-1-yl)methyl]-5-methylpiperazin-1-yl]-1-{6-[(4-fluorophenyl)methyl]-3,3-dimethyl-1H,2H,3H-pyrrolo[3,2-b]pyridin-1-yl}ethan-1-one, dihydrochloride] | – | 99% | 34% | –
7 | CCc1nccn1C[C@H]1CN[C@H](C)CN1CC(=O)N1CC(C)(C)c2ncc(Cc3ccc(F)cc3)cc21 [Example 4, 2-[(2R,5R)-2-[(2-Ethyl-1H-imidazol-1-yl)methyl]-5-methylpiperazin-1-yl]-1-{6-[(4-fluorophenyl)methyl]-3,3-dimethyl-1H,2H,3H-pyrrolo[3,2-b]pyridin-1-yl}ethan-1-one, dihydrochloride] | – | 96% | 35% | –
8 | C[C@@H]1CN(CC(=O)N2CC(C)(C)c3ncc(Cc4ccc(F)cc4)cc32)[C@@H](Cn2ccnc2C(F)(F)F)CN1 [Example 5, 1-{6-[(4-Fluorophenyl)methyl]-3,3-dimethyl-1H,2H,3H-pyrrolo[3,2-b]pyridin-1-yl}-2-[(2R,5R)-5-methyl-2-{[2-(trifluoromethyl)-1H-imidazol-1-yl]methyl}piperazin-1-yl]ethan-1-one, dihydrochloride] | – | 96% | – | IC50 [2]: 110 nM
9 | C[C@@H]1CN(CC(=O)N2CC(C)(C)c3ncc(Cc4ccc(F)cc4)cc32)[C@@H](Cn2ccnc2)CN1 [Example 6, 1-{6-[(4-Fluorophenyl)methyl]-3,3-dimethyl-1H,2H,3H-pyrrolo[3,2-b]pyridin-1-yl}-2-[(2R,5R)-2-(1H-imidazol-1-ylmethyl)-5-methylpiperazin-1-yl]ethan-1-one, dihydrochloride] | – | – | – | inhibition at […] [2]: 54%
10 | Cc1cn(C[C@H]2CN[C@H](C)CN2CC(=O)N2CC(C)(C)c3ncc(Cc4ccc(F)cc4)cc32)c(C)n1 [Example 7, 2-[(2R,5R)-2-[(2,4-Dimethyl-1H-imidazol-1-yl)methyl]-5-methylpiperazin-1-yl]-1-{6-[(4-fluorophenyl)methyl]-3,3-dimethyl-1H,2H,3H-pyrrolo[3,2-b]pyridin-1-yl}ethan-1-one, dihydrochloride] | 2.9 nM | – | – | –
11 | C[C@@H]1CN(CC(=O)N2CC(C)(C)c3ncc(Cc4ccc(F)cc4)cc32)[C@@H](Cn2ccnc2Cl)CN1 [Example 8, 2-[(2R,5R)-2-[(2-Chloro-1H-imidazol-1-yl)methyl]-5-methylpiperazin-1-yl]-1-{6-[(4-fluorophenyl)methyl]-3,3-dimethyl-1H,2H,3H-pyrrolo[3,2-b]pyridin-1-yl}ethan-1-one, dihydrochloride] | – | 100% | 36% | –
12 | Cc1ccc(=O)n(C[C@H]2CN[C@H](C)CN2CC(=O)N2CC(C)(C)c3ncc(Cc4ccc(F)cc4)cc32)c1 [Example 9, 1-{[(2R,5R)-1-(2-{6-[(4-Fluorophenyl)methyl]-3,3-dimethyl-1H,2H,3H-pyrrolo[3,2-b]pyridin-1-yl}-2-oxoethyl)-5-methylpiperazin-2-yl]methyl}-5-methyl-1,2-dihydropyridin-2-one, dihydrochloride] | – | 92% | 35% | –
13 | C[C@@H]1CN(CC(=O)N2CC(C)(C)c3ncc(Cc4ccc(F)cc4)cc32)[C@@H](Cn2ccnc2C#N)CN1 [Example 10, 1-{[(2R,5R)-1-(2-{6-[(4-Fluorophenyl)methyl]-3,3-dimethyl-1H,2H,3H-pyrrolo[3,2-b]pyridin-1-yl}-2-oxoethyl)-5-methylpiperazin-2-yl]methyl}-1H-imidazole-2-carbonitrile, L-lactate] | – | – | – | EC50 ([1]; EVSA-T, 72 h): 6.4 nM
14 | Cc1nc(Cl)cn1C[C@H]1CN[C@H](C)CN1CC(=O)N1CC(C)(C)c2ncc(Cc3ccc(F)cc3)cc21 [Example 11, 2-[(2R,5R)-2-[(4-Chloro-2-methyl-1H-imidazol-1-yl)methyl]-5-methylpiperazin-1-yl]-1-{6-[(4-fluorophenyl)methyl]-3,3-dimethyl-1H,2H,3H-pyrrolo[3,2-b]pyridin-1-yl}ethan-1-one, dihydrochloride] | – | – | – | EC50 ([1]; EVSA-T, 72 h): 1.8 nM
15 | Cc1cnnn1C[C@H]1CN[C@H](C)CN1CC(=O)N1CC(C)(C)c2ncc(Cc3ccc(F)cc3)cc21 [Example 15, 1-{6-[(4-Fluorophenyl)methyl]-3,3-dimethyl-1H,2H,3H-pyrrolo[3,2-b]pyridin-1-yl}-2-[(2R,5R)-5-methyl-2-[(5-methyl-1H-1,2,3-triazol-1-yl)methyl]piperazin-1-yl]ethan-1-one, dihydrochloride] | 9.4 nM | – | – | IC50 [2]: 220 nM
16 | Cc1cn(C[C@H]2CN[C@H](C)CN2CC(=O)N2CC(C)(C)c3ncc(Cc4ccc(F)cc4)cc32)nn1 [Example 16, 1-{6-[(4-Fluorophenyl)methyl]-3,3-dimethyl-1H,2H,3H-pyrrolo[3,2-b]pyridin-1-yl}-2-[(2R,5R)-5-methyl-2-[(4-methyl-1H-1,2,3-triazol-1-yl)methyl]piperazin-1-yl]ethan-1-one, dihydrochloride] | 8.5 nM | – | – | –
17 | Cc1ncnn1C[C@H]1CN[C@H](C)CN1CC(=O)N1CC(C)(C)c2ncc(Cc3ccc(F)cc3)cc21 [Example 21, 1-{6-[(4-Fluorophenyl)methyl]-3,3-dimethyl-1H,2H,3H-pyrrolo[3,2-b]pyridin-1-yl}-2-[(2R,5R)-5-methyl-2-[(5-methyl-1H-1,2,4-triazol-1-yl)methyl]piperazin-1-yl]ethan-1-one] | – | 95% | – | inhibition at […] [2]: 61%
18 | Cc1cc(C[C@H]2CN[C@H](C)CN2CC(=O)N2CC(C)(C)c3ncc(Cc4ccc(F)cc4F)cc32)n(C)n1 [Example 22, 1-{6-[(2,4-Difluorophenyl)methyl]-3,3-dimethyl-1H,2H,3H-pyrrolo[3,2-b]pyridin-1-yl}-2-[(2S,5R)-2-[(1,3-dimethyl-1H-pyrazol-5-yl)methyl]-5-methylpiperazin-1-yl]ethan-1-one, dihydrochloride] | – | – | 47% | –
19 | Cc1cn(C[C@H]2CN[C@H](C)CN2CC(=O)N2CC(C)(C)c3ncc(Cc4ccc(F)cc4)cc32)ccc1=O [Example 38, 1-{[(2R,5R)-1-(2-{6-[(4-Fluorophenyl)methyl]-3,3-dimethyl-1H,2H,3H-pyrrolo[3,2-b]pyridin-1-yl}-2-oxoethyl)-5-methylpiperazin-2-yl]methyl}-3-methyl-1,4-dihydropyridin-4-one, dihydrochloride] | – | 94% | 48% | –
